Active and inactive are the calls of the source. The calls are words filed in the database; no cut-off is given here.
Key:
Culex quinquefasciatus [1] = experiment: Toxicity against third instar larve of Culex quinquefasciatus after 24 hr; format: functional
Culex quinquefasciatus [2] = experiment: Toxicity against third instar larve of Culex quinquefasciatus assessed as mortality at 100 ugcm'-3 after 24 hr; format: functional

In the case of O=C(/C=C/c1cccc([N+](=O)[O-])c1)c1ccc(O)cc1, the LC50 (Culex quinquefasciatus [1]) is reported as 89 umol/dm3.
In the case of O=C(/C=C/c1ccccc1)c1ccccc1O [2'-HYDROXYCHALCONE], the mortality (Culex quinquefasciatus [2]) is reported as 100% and the LC50 (Culex quinquefasciatus [1]) is reported as 55 umol/dm3.
Compound O=C(/C=C/C=C/c1ccccc1)c1ccccc1 has an LC50 (Culex quinquefasciatus [1]) of 437 umol/dm3.
For CC(/C=C/c1ccccc1)=N/O, the LC50 (Culex quinquefasciatus [1]) was 345 umol/dm3.
Work on O=C(/C=C/c1cccc([N+](=O)[O-])c1)c1ccccc1O yielded an LC50 (Culex quinquefasciatus [1]) of 526.6 umol/dm3.
In the case of CC(/C=C/c1ccccc1)=N\Nc1ccccc1, the LC50 (Culex quinquefasciatus [1]) is reported as 465 umol/dm3.
O=C(/C=C/c1ccc(Cl)cc1)c1ccccc1O was tested, and the mortality (Culex quinquefasciatus [2]) was 100% and the LC50 (Culex quinquefasciatus [1]) was 81 umol/dm3.
O=C(/C=C/c1ccccc1)/C=C/c1ccccc1 gave an LC50 (Culex quinquefasciatus [1]) of 2064.4 umol/dm3.
O=C(/C=C/c1ccccc1)c1ccccc1 [CHALCONE] was tested, and the mortality (Culex quinquefasciatus [2]) was 100% and the LC50 (Culex quinquefasciatus [1]) was 90 umol/dm3.
In the case of CC(/C=C/c1ccccc1)=N\NC(N)=O, the LC50 (Culex quinquefasciatus [1]) is reported as 2087.9 umol/dm3.
COc1cccc(/C=C/C(=O)c2ccccc2O)c1-c1ccc(O)cc1 gave an LC50 (Culex quinquefasciatus [1]) of 684.9 umol/dm3.
For O=[N+]([O-])c1ccc(N/N=C(/C=C/c2ccccc2)c2ccccc2)c([N+](=O)[O-])c1, the mortality (Culex quinquefasciatus [2]) was “inactive” and the LC50 (Culex quinquefasciatus [1]) was 2531.3 umol/dm3.
O=C(/C=C/c1ccc([N+](=O)[O-])cc1)c1ccccc1O showed an LC50 (Culex quinquefasciatus [1]) of 881.6 umol/dm3.
C(=C\c1ccccc1)/C(=N/Nc1ccccc1)c1ccccc1 was tested, and the LC50 (Culex quinquefasciatus [1]) was 2134.5 umol/dm3.
In the case of CC(/C=C/c1ccccc1)=N\Nc1ccc([N+](=O)[O-])cc1[N+](=O)[O-], the mortality (Culex quinquefasciatus [2]) is reported as “inactive” and the LC50 (Culex quinquefasciatus [1]) is reported as 2344.1 umol/dm3.
For O=[N+]([O-])c1ccc(NN=C(/C=C/c2ccccc2)/C=C/c2ccccc2)c([N+](=O)[O-])c1, the mortality (Culex quinquefasciatus [2]) was “inactive” and the LC50 (Culex quinquefasciatus [1]) was 2638.2 umol/dm3.
O=C(/C=C/c1cccc([N+](=O)[O-])c1)c1ccccc1 showed an LC50 (Culex quinquefasciatus [1]) of 994.4 umol/dm3.
O=C(/C=C/c1ccc(Cl)cc1)c1ccccc1 [4-CHLORO CHALCONE] showed an LC50 (Culex quinquefasciatus [1]) of 5 umol/dm3.
With O=C(/C=C/c1ccc([N+](=O)[O-])cc1)c1ccccc1 the LC50 (Culex quinquefasciatus [1]) was 959.5 umol/dm3.
O=C(/C=C/c1ccccc1O)c1ccccc1 was tested, and the mortality (Culex quinquefasciatus [2]) was 100% and the LC50 (Culex quinquefasciatus [1]) was 104 umol/dm3.
O=C(/C=C/c1ccc2c(c1)OCO2)c1ccccc1 was tested, and the LC50 (Culex quinquefasciatus [1]) was 5 umol/dm3.
For COc1cccc(/C=C/C(=O)c2ccccc2)c1-c1ccc(O)cc1, the LC50 (Culex quinquefasciatus [1]) was 1474 umol/dm3.
O=C(/C=C/c1ccc([N+](=O)[O-])cc1)c1ccc(O)cc1 gave an LC50 (Culex quinquefasciatus [1]) of 91 umol/dm3.
O=C(/C=C/c1ccccc1)c1ccc(O)cc1 [4'-HYDROXYCHALCONE] was tested, and the LC50 (Culex quinquefasciatus [1]) was 238 umol/dm3.
O=C(/C=C/C=C/c1ccccc1)c1ccccc1O gave an LC50 (Culex quinquefasciatus [1]) of 1121.1 umol/dm3.
With O=C(/C=C/c1ccc2c(c1)OCO2)c1ccccc1O the LC50 (Culex quinquefasciatus [1]) was 986.1 umol/dm3.
O=C(/C=C/c1ccco1)c1ccccc1O was tested, and the mortality (Culex quinquefasciatus [2]) was 100% and the LC50 (Culex quinquefasciatus [1]) was 19 umol/dm3.

Source: ChEMBL document CHEMBL3044882, “Mosquito larvicidal studies of some chalcone analogues and their derived products: structureactivity relationship analysis” (2011)
